In PubChem BioAssay AID687005 (Broad Institute, 2013) one finds activity change, negative = cytotoxicity data, which are given here for 57 compounds.

Each structure is given as a SMILES string. Records with an inconclusive call do not appear. Calls of active or inactive are those of the source.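 How the source made its calls: active means Compounds that reduce signal, with fitted half-maximal dose at or under twice the top valid tested dose; inconclusive means Poor fit, or flat curve losing 30 to 70% of signal; inactive means Potency past limit, flat within 30%, or opposite direction.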

The first experiment in a line: viability loss in HEK293T cells – cell-based, ATP luminescence, cherry-pick samples, cytotoxicity control, dose response (AID 687005). As to conditions: HEK293T viability, ATP luminescence (CellTiter-Glo), 48 h; at 21 µM (top of the series).
In the case of `C[C@@H]1CN([C@H](C)CO)C(=O)Cc2cc(NC(=O)CCCCCC(=O)Nc3ccccc3N)ccc2O[C@H]1CN(C)Cc1ccc2c(c1)OCO2`, the activity change, negative = cytotoxicity was -2.18% (inactive).

The experiment is the same for the next values; noted with them: HEK293T viability, ATP luminescence (CellTiter-Glo), 48 h; at 23.5 µM (top of the series).
Consider `C[C@@H]1CN([C@H](C)CO)C(=O)c2cc(NC(=O)Nc3cccc4ccccc34)ccc2O[C@H]1CN(C)C(=O)Nc1ccc(C(F)(F)F)cc1`, for which the activity change, negative = cytotoxicity is -31% (inactive).
As to `C[C@H](CO)N1C[C@H](C)[C@@H](CN(C)C(=O)c2ccncc2)OCCCC[C@H](C)Oc2ccc(NC(=O)Cc3ccccc3)cc2C1=O`, the activity change, negative = cytotoxicity is -0.45% (inactive).
The same measure, in the same setting: the value for `C[C@@H]1CN([C@@H](C)CO)C(=O)c2cc(NS(=O)(=O)c3ccccc3)ccc2O[C@H]1CN(C)C(=O)NC1CCCCC1` was -17.7% (inactive); that for `CC(C)NC(=O)N1CC[C@@H]2[C@@H](CO)N(C)c3ccc(-c4cccc(F)c4)cc3[C@@H]21` was 40.1% (inactive).
On the same count and under the same terms, the value for `CC(C)NC(=O)Nc1ccc2c(c1)CC(=O)N([C@H](C)CO)C[C@H](C)[C@H](CN(C)S(=O)(=O)c1ccc(Cl)cc1)O2` was 39.4% (inactive); that for `CCCNC(=O)[C@@H]1[C@@H](CO)[C@@H]2Cn3c(cccc3=O)[C@H]1N2C(=O)Nc1cc(F)ccc1F` was 27.4% (inactive).

Staying with this experiment, now noted: HEK293T viability, ATP luminescence (CellTiter-Glo), 48 h; at 26 µM (top of the series).
In the case of `O=C(C[C@@H]1C=C[C@@H](NC(=O)Nc2cc(F)ccc2F)[C@H](CO)O1)NCCCN1CCOCC1`, the activity change, negative = cytotoxicity is 0.247% (inactive).
As to `COc1ccc(-c2cnc3c(c2)C(=O)N([C@@H](C)CO)C[C@H](C)[C@@H](CN(C)S(C)(=O)=O)O3)cc1`, the activity change, negative = cytotoxicity was -11.2% (inactive).
On the same count and under the same terms, the value for `C[C@H]1CN([C@@H](C)CO)S(=O)(=O)c2ccc(C#Cc3cccc(F)c3)cc2O[C@@H]1CN(C)C` was -49.7% (inactive); that for `COCCNC(=O)C[C@H]1CC[C@@H]2[C@H](COC[C@H](O)CN2S(=O)(=O)c2ccccc2C)O1` was 15.9% (inactive).
On the same count and under the same terms, next, `C[C@H]1CCCCO[C@@H](CN(C)C(=O)c2ccccc2)[C@@H](C)CN([C@@H](C)CO)C(=O)c2cc(NC(=O)c3ccncc3)ccc2O1`: -3.03% (inactive); `CC(C)NC(=O)Nc1ccc2c(c1)CC(=O)N([C@@H](C)CO)C[C@@H](C)[C@H](CN(C)C(=O)Nc1ccc3c(c1)OCO3)O2`: 50.2% (inactive).
Still for that read-out and setting: the value for `C[C@H]1CN([C@@H](C)CO)C(=O)c2cc(C#Cc3ccccn3)cnc2O[C@H]1CN(C)Cc1ccncc1` was 38.4% (inactive); that for `C[C@@H](NC(=O)C[C@@H]1CC[C@H]2[C@@H](COC[C@@H](O)CN2Cc2cc(F)ccc2F)O1)c1ccccc1` was -19.7% (inactive); that for `CC(C)NC(=O)Nc1ccc2c(c1)C(=O)N([C@H](C)CO)C[C@@H](C)[C@H](CN(C)C(=O)Nc1ccccc1)OCCCC[C@@H](C)O2` was 37.7% (inactive).
As for `O=C(C[C@@H]1C=C[C@@H](NC(=O)c2cccc(F)c2)[C@H](CO)O1)NCCN1CCCC1`, the activity change, negative = cytotoxicity is 20.8% (inactive).
On the same count and under the same terms, the value for `Cc1ccc(S(=O)(=O)N[C@H]2CC[C@H](CCNC(=O)C3CCCC3)O[C@@H]2CO)cc1` was -7.25% (inactive); that for `C[C@H](O)C#Cc1ccc2c(c1)O[C@H](CN(C)Cc1ccncc1)[C@H](C)CN([C@H](C)CO)S2(=O)=O` was 29.2% (inactive); that for `CNC[C@@H]1OCCCC[C@H](C)Oc2ccc(NC(=O)Nc3ccc(F)cc3)cc2C(=O)N([C@@H](C)CO)C[C@H]1C` was 28.7% (inactive).
As to `CC(C)NC(=O)N(C)C[C@H]1OCCCC[C@H](C)Oc2ccc(NC(=O)c3ccccc3)cc2C(=O)N([C@@H](C)CO)C[C@@H]1C`, the activity change, negative = cytotoxicity was 55.3% (inactive).
Same read-out and setting: the value for `CC(C)NC(=O)Nc1ccc2c(c1)C(=O)N([C@@H](C)CO)C[C@@H](C)[C@@H](CN(C)C(=O)NC(C)C)OCCCC[C@@H](C)O2` was 20.5% (inactive); that for `COc1cccc(S(=O)(=O)Nc2ccc3c(c2)[C@H]2C[C@H](CC(=O)N(C)C)O[C@@H](CO)[C@H]2O3)c1` was -5.49% (inactive).
The same measure, in the same setting: next, `C#CCN(C(=O)c1ccc(OC2CCN(C(=O)CCOC)CC2)cc1)C1CCCCC1`: 8.74% (inactive); `C[C@H]1CN([C@@H](C)CO)S(=O)(=O)c2ccc(Br)cc2O[C@@H]1CN(C)C(=O)CCN1CCCCC1`: 38.4% (inactive); `C[C@H](CO)N1C[C@H](C)[C@H](CN(C)Cc2ccccc2)Oc2cc(C#Cc3ccccn3)ccc2S1(=O)=O`: -48.6% (inactive).
On the same count and under the same terms, next, `CCS(=O)(=O)N1CCCCN2[C@H](CO)[C@@H](c3ccc(-c4ccc(C#N)cc4)cc3)[C@@H]2C1`: 2.55% (inactive); `CCC(C)(NC=O)C(=O)Nc1c(C)cccc1C` (configuration not stated): -37.8% (inactive); `O=C(CN(c1ccccc1)S(=O)(=O)c1ccc(F)cc1)NC1CCS(=O)(=O)C1` (configuration not stated): -0.328% (inactive).
With `CCCNC(=O)C[C@H]1C[C@H]2c3cc(NC(=O)Nc4ccc(OC)cc4)ccc3O[C@H]2[C@@H](CO)O1`, the activity change, negative = cytotoxicity is -21% (inactive).
As for `C[C@H](NC(=O)C[C@@H]1C=C[C@H](NC(=O)CN2CCOCC2)[C@H](CO)O1)c1ccccc1`, the activity change, negative = cytotoxicity is -20.9% (inactive).
Still for that read-out and setting: next, `CCC(=O)N1[C@@H]2Cn3c(ccc(C4=CCCCC4)c3=O)[C@H]1[C@@H](C(=O)N[C@H](C)c1ccccc1)[C@@H]2CO`: -16.5% (inactive); `C[C@@H]1CN([C@@H](C)CO)C(=O)c2cccc(NS(C)(=O)=O)c2O[C@@H]1CN(C)C(=O)Nc1ccc2c(c1)OCO2`: -20.4% (inactive); `CNC(=O)C[C@@H]1CC[C@H]2[C@@H](COC[C@H](O)CN2C(=O)Nc2ccc3c(c2)OCO3)O1`: -5.64% (inactive).
Same read-out and setting: the value for `CO[C@@H]1CN(C)C(=O)c2ccc(NS(=O)(=O)c3ccc(Oc4ccccc4)cc3)cc2OC[C@H](C)NC[C@H]1C` was -26.5% (inactive); that for `COc1ccc(-c2cnc3c(c2)C(=O)N([C@@H](C)CO)C[C@@H](C)[C@@H](CN(C)S(C)(=O)=O)O3)cc1` was 6.27% (inactive); that for `CCNC(=O)Nc1ccc2c(c1)C(=O)N(C)[C@@H]1CC[C@H](CC(=O)N[C@@H](C)c3ccccc3)O[C@@H]1CO2` was 66.2% (inactive).
Still for that read-out and setting: next, `COc1ccc(S(=O)(=O)Nc2ccc3c(c2)C(=O)N([C@H](C)CO)C[C@H](C)[C@H](CN(C)C(=O)Nc2ccccc2)O3)cc1`: -2.82% (inactive); `C[C@@H]1CN([C@@H](C)CO)C(=O)CCCn2nncc2CO[C@@H]1CN(C)Cc1cccc(C(F)(F)F)c1`: -9.87% (inactive).
Regarding `O=C(NC(=S)Nc1ccc(CN2CCOCC2)cc1)c1ccc([N+](=O)[O-])cc1`, the activity change, negative = cytotoxicity is -19.4% (inactive).
On to `CC(C)NC(=O)Nc1ccc2c(c1)C(=O)N([C@@H](C)CO)C[C@H](C)[C@@H](CN(C)Cc1ccc3c(c1)OCO3)OCCCC[C@@H](C)O2`, for which the activity change, negative = cytotoxicity was -28.1% (inactive).
Still for that read-out and setting: next, `CNC(=O)CN(c1ccc(OC)cc1)S(=O)(=O)c1ccc(F)cc1`: 31.6% (inactive); `CC(=O)N[C@H]1CC[C@@H](CCNC(=O)C2CCC2)O[C@H]1CO`: 1.44% (inactive); `S=C(NCc1ccccc1)NCC1COc2ccccc2O1` (configuration not stated): -15.9% (inactive).
For the compound `C[C@H](CO)N1C[C@H](C)[C@H](CN(C)Cc2cccnc2)Oc2ncc(C#CC3(O)CCCC3)cc2C1=O`, the activity change, negative = cytotoxicity is -14.5% (inactive).
Consider `Cc1noc(C)c1NC(=O)Nc1ccc2c(c1)C(=O)N([C@H](C)CO)C[C@H](C)[C@H](CN(C)CC1CCCCC1)O2`, for which the activity change, negative = cytotoxicity was 40.9% (inactive).
For the compound `CCNC(=O)Nc1ccc2c(c1)C(=O)N(C)[C@H]1CC[C@H](CC(=O)Nc3ccccc3F)O[C@@H]1CO2`, the activity change, negative = cytotoxicity is 46.5% (inactive).
Still for that read-out and setting: the value for `CCC(=O)N(C)C[C@H]1Oc2cc(-c3ccccc3)ccc2S(=O)(=O)N([C@H](C)CO)C[C@H]1C` was 6.53% (inactive); that for `CC(C)CC#Cc1cnc2c(c1)C(=O)N([C@H](C)CO)C[C@H](C)[C@H](CN(C)C(=O)c1cccnc1)O2` was -8.15% (inactive).
On the same count and under the same terms, next, `C[C@H](O)C#Cc1cnc2c(c1)C(=O)N([C@@H](C)CO)C[C@@H](C)[C@@H](CN(C)C(=O)Cc1ccncc1)O2`: 0.451% (inactive); `C/C=C/c1ccc2c(c1)O[C@H](CN(C)S(=O)(=O)c1ccccc1)[C@H](C)CN([C@@H](C)CO)S2(=O)=O`: -8.59% (inactive); `C[C@@H]1CN([C@@H](C)CO)C(=O)Cc2cc(NC(=O)Nc3cccc4ccccc34)ccc2O[C@@H]1CN(C)S(=O)(=O)c1cccs1`: 153% (inactive).
For the compound `CC(C)NC(=O)Nc1cccc2c1O[C@H](CN(C)C)[C@H](C)CN([C@@H](C)CO)C2=O`, the activity change, negative = cytotoxicity was 22% (inactive).
Regarding `COc1cccc(NC(=S)N2CCC(Cc3ccccc3)CC2)c1`, the activity change, negative = cytotoxicity is 15.7% (inactive).

The experiment is the same for the next values; noted with them: HEK293T viability, ATP luminescence (CellTiter-Glo), 48 h; at 30 µM (top of the series).
Regarding `COC(=O)C1=C(C)N(CC(C)C)C(=S)NC1c1cccc(F)c1` (configuration not stated), the activity change, negative = cytotoxicity is -13.7% (inactive).

Staying with this experiment, now noted: HEK293T viability, ATP luminescence (CellTiter-Glo), 48 h; at 42 µM (top of the series).
Turning to `CCCC(=O)N1CCCC1(C)C(=O)Nc1ccc(C)c(C)c1` (configuration not stated), the activity change, negative = cytotoxicity is -11.7% (inactive).

Staying with this experiment, now noted: HEK293T viability, ATP luminescence (CellTiter-Glo), 48 h; at 50 µM (top of the series).
As for `Cc1ccc(OCC(=O)NCc2ccccc2)cc1`, the activity change, negative = cytotoxicity is 29% (inactive).
